{"source": "patent US9878036B2", "about": "“Immunomodulatory compositions comprising a polymer matrix and an oil phase” (Sigmoid Pharma Limited, priority 2009, dated 2018)", "test_system": "BALB/c mice", "conditions": "mouse, in vivo, po", "data": [{"substance": "ovalbumin alone in solution: model antigen ovalbumin (200 μg/mouse) in bicarbonate buffer, oral comparator", "values": [{"measurement": "OVA-specific IgG antibodies in sera", "value": "variable IgG antibody responses"}]}]}
